Structures can show the parent of a compound that is named as a salt.
Experiments:
[1] = system: V370A; experiment: MT4 Cell Antiviral Assay (V370A); format: cell-based, HIV-1; details: Human immunodeficiency virus 1, MT4, read-out: EC50 V370A (nM)
[2] = system: NL4-3 wt; experiment: MT4 Cell Antiviral Assay (NL4-3 wt); format: cell-based, HIV-1; details: Human immunodeficiency virus 1, NL43, HIV MT4 Antiviral Cell Assay
[3] = system: HIV-1 (strain IIIB); experiment: MT4 Cell Antiviral Assay (general statement, control); format: cell-based; details: Human immunodeficiency virus 1, IIIB, control and standard in every assay, propidium iodide readout, read-out: expected range of IC50 values
Protocol: Antiviral HIV activity and compound-induced cytotoxicity were measured in parallel by means of a propidium iodide based procedure in the human T-cell lymphotropic virus transformed cell line MT4. Aliquots of the test compounds were serially diluted in medium (RPMI 1640, 10% fetal calf serum (FCS), and gentamycin) in 96-well plates (Costar 3598) using a Cetus Pro/Pette. Exponentially growing MT4 cells were harvested and centrifuged at 1000 rpm for 10 min in a Jouan centrifuge (model CR 4 12). Cell pellets were resuspended in fresh medium (RPMI 1640, 20% FCS, 20% IL-2, and gentamycin) to a density of 5×10^5 cells/ml. […]
For propidium iodide readout, 27 μl of 5% Nonidet-40 was added to each well of the incubation plate. […] The plates were analyzed in an automated assay instrument (Screen Machine, Idexx Laboratories). […]
For MTS readout, 20 μl CellTiter 96 AQ One Solution reagent (Promega #G3582) was added to each well. At 75 minutes following the addition of MTS reagent, absobance was read at 492 nm using a Tecan Sunrise 96-well plate reader. […]
For each assay plate, the results (relative fluorescence units, rfU, or OD values) of wells containing uninfected cells or infected cells with no compound were averaged, respectively. […] Percent of cells remaining is determined by the following formula: […]

[4] = system: HIV; details: cited from earlier work

## CC(C)C1=C2[C@H]3CC[C@@H]4[C@@]5(C)CC=C(C6=CCC(C(=O)O)CC6)C(C)(C)[C@@H]5CC[C@@]4(C)[C@]3(C)CC[C@@]2(C(=O)NCCN2CCC(S(C)(=O)=O)CC2)CC1=O (stereo partly drawn) [Example 1, 4-((3aR,5aR,5bR,7aR,11aS,11bR,13aS)-1-Isopropyl-5a,5b,8,8,11a-pentamethyl-3a-((2-(4-(methylsulfonyl)piperidin-1-yl)ethyl)carbamoyl)-2-oxo-3,3a,4,5,5a,5b,6,7,7a,8,11,11a,11b,12,13,13a-hexadecahydro-2H-cyclopenta[a]chrysen-9-yl)cyclohex-3-enecarboxylic acid]
[1]
  EC50: > 25000 nM
[2]
  EC50: > 23900 nM

## CC(C)C1=C2[C@H]3CC[C@@H]4[C@@]5(C)CC=C(C6=CCC(C(=O)O)CC6)C(C)(C)[C@@H]5CC[C@@]4(C)[C@]3(C)CC[C@@]2(C(=O)NCCN2CCS(=O)(=O)CC2)CC1=O (stereo partly drawn) [Example 2, 4-((3aR,5aR,5bR,7aR,11aS,11bR,13aS)-3a-((2-(1,1-Dioxidothiomorpholino)ethyl)carbamoyl)-1-isopropyl-5a,5b,8,8,11a-pentamethyl-2-oxo-3,3a,4,5,5a,5b,6,7,7a,8,11,11a,11b,12,13,13a-hexadecahydro-2H-cyclopenta[a]chrysen-9-yl)cyclohex-3-enecarboxylic acid]
[1]
  EC50: > 25000 nM
[2]
  EC50: 3390 nM

## Cc1cn([C@H]2C[C@H](N=[N+]=[N-])[C@@H](CO)O2)c(=O)[nH]c1=O [3′-azido-3′-deoxythymidine]
[3]
  IC50: 40 to 120 nM

## CC(C)C1=C2[C@H]3CC[C@@H]4[C@@]5(C)CC=C(c6ccc(C(=O)O)cc6)C(C)(C)[C@@H]5CC[C@@]4(C)[C@]3(C)CC[C@@]2(C(=O)N(CCN(C)C)Cc2ccc(Cl)cc2)CC1=O [Example 8, 4-((3aR,5aR,5bR,7aR,11aS,11bR,13aS)-3a-((4-Chlorobenzyl) (2-(dimethylamino)ethyl)carbamoyl)-1-isopropyl-5a,5b,8,8,11a-pentamethyl-2-oxo-3,3a,4,5,5a,5b,6,7,7a,8,11,11a,11b,12,13,13a-hexadecahydro-2H-cyclopenta[a]chrysen-9-yl)benzoic acid hydrochloride]
[1]
  EC50: 64.6 nM
[2]
  EC50: 28.8 nM

## C=C(C)[C@@H]1CC[C@]2(C(=O)O)CC[C@]3(C)[C@H](CC[C@@H]4[C@@]5(C)CC[C@H](OC(=O)CC(C)(C)C(=O)O)C(C)(C)[C@@H]5CC[C@]43C)[C@@H]12 [Bevirimat]
[4]; patients with trough levels >=20 μg/mL and without key baseline Gag polymorphisms at Q369, V370 or T371
  reduced HIV viral load, mean: 1.3 log10/mL
[4]; users with Gag polymorphisms at Q369, V370 or T371, versus patients without them
  viral load reduction: significantly lower load reductions

## CC(C)C1=C2[C@H]3CC[C@@H]4[C@@]5(C)CC=C(C6=CCC(C(=O)O)CC6)C(C)(C)[C@@H]5CC[C@@]4(C)[C@]3(C)CC[C@@]2(C(=O)N(CCN(C)C)Cc2ccc(Cl)cc2)CC1=O (stereo partly drawn) [Example 6, 4-((3aR,5aR,5bR,7aR,11aS,11bR,13aS)-3a-((4-Chlorobenzyl) (2-(dimethylamino)ethyl)carbamoyl)-1-isopropyl-5a,5b,8,8,11a-pentamethyl-2-oxo-3,3a,4,5,5a,5b,6,7,7a,8,11,11a,11b,12,13,13a-hexadecahydro-2H-cyclopenta[a]chrysen-9-yl)cyclohex-3-enecarboxylic acid]
[1]
  EC50: 14.1 nM
[2]
  EC50: 11.2 nM

## CC(C)C1=C2[C@H]3CC[C@@H]4[C@@]5(C)CC=C(C6=CCC(C(=O)O)CC6)C(C)(C)[C@@H]5CC[C@@]4(C)[C@]3(C)CC[C@@]2(C(=O)N(CCN(C)C)[C@H](C)c2ccc(Cl)cc2)CC1=O (stereo partly drawn) [Example 5, 4-((3aR,5aR,5bR,7aR,11aS,11bR,13aS)-3a-(((R)-1-(4-Chlorophenyl)ethyl) (2-(dimethylamino)ethyl)carbamoyl)-1-isopropyl-5a,5b,8,8,11a-pentamethyl-2-oxo-3,3a,4,5,5a,5b,6,7,7a,8,11,11a,11b,12,13,13a-hexadecahydro-2H-cyclopenta[a]chrysen-9-yl)cyclohex-3-enecarboxylic acid]
[1]
  EC50: 9.5 nM
[2]
  EC50: 7.6 nM

## CC(C)C1=C2[C@H]3CC[C@@H]4[C@@]5(C)CC=C(c6ccc(C(=O)O)cc6)C(C)(C)[C@@H]5CC[C@@]4(C)[C@]3(C)CC[C@@]2(C(=O)N(CCN(C)C)[C@H](C)c2ccc(Cl)cc2)CC1=O [Example 7, 4-((3aR,5aR,5bR,7aR,11aS,11bR,13aS)-3a-(((R)-1-(4-Chlorophenyl)ethyl) (2-(dimethylamino)ethyl)carbamoyl)-1-isopropyl-5a,5b,8,8,11a-pentamethyl-2-oxo-3,3a,4,5,5a,5b,6,7,7a,8,11,11a,11b,12,13,13a-hexadecahydro-2H-cyclopenta[a]chrysen-9-yl)benzoic acid hydrochloride]
[1]
  EC50: 8.9 nM
[2]
  EC50: 8.5 nM

From patent publication US20180273579A1, “COMPOUNDS WITH HIV MATURATION INHIBITORY ACTIVITY” (priority 2015, published 2018)
